US20210220184A1, “ABSORBENT TAMPON FOR TREATMENT OF MENSTRUAL SYMPTOMS” (Anne's Day Ltd, priority 2018, published 2021)

Tested on: women with a history of mild or sever dysmenorrhea
Assay: Clinical study of tampon with CBD (randomized, controlled, crossover, two menstrual cycles; questionnaire and diary data)
Format: in vivo
Details: tests performed by the inventors; cannabidiol provided on the tampon
Protocol: The following study was performed to assess the safety and efficacy of a tampon covered with CBD oil.
Patients and Samples. A total of 130 women aged between 18 and 42 with a history of mild or sever dysmenorrhea were recruited for this study.
Study design. […] Patients were divided into two groups. One group used a hemp, CBD-infused tampon. The tampon contained […] of CBD oil. The tampon consisted of highly absorbent organic hemp fibers and organic hemp overwrap, organic cotton stitching thread and organic cotton removal cord, and a layer of CBD oil sprayed on top of the hemp overwrap. A second group used a standard off-the-shelf tampon product as a control. The off-the-shelf tampon consisted of blended rayon and viscose fibers with a non-woven rayon overwrap, cotton stitching thread and removal cord.
In a first visit, a patient underwent a gynecological exam and had blood drawn to test for STIs. If the patient fit inclusion criteria, in a second visit, the patient was divided into an experimental group or control group. A control test for levels of CBD in the bloodstream was performed on all participants and the results recorded. All participants were given diaries and instructed to write a detailed account of the comfort of tampon insertion and removal, comfort of wear, and levels of pain experienced. […]

Compound: C=C(C)[C@@H]1CCC(C)=C[C@H]1c1c(O)cc(CCCCC)cc1O [cannabidiol]
- vaginal delivery from the tampon to treat symptoms associated with menstruation: can be delivered vaginally
